Values joined by “and” are separate entries in the source; they are usually repeats but may differ in a detail not shown here. Identical values can stand only once. Inconclusive results and toxic doses are left out.
Test system: L1210 leukemia ip in BDF1 mice, survival T/C
Assay: NCI In Vivo Anticancer Drug Screen. Data for tumor model L1210 Leukemia (intraperitoneal) in B6D2F1 (BDF1) mice
Details: endpoint: mean survival time, higher = longer survival
Method in brief: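 Tumor cells were implanted, animals were treated, and survival was followed. The result divides the treated measurement by the vehicle-control measurement.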

[1] = dose: 50.0 mg/kg/injection, schedule: Q01DX009 (ip), vehicle: saline
[2] = dose: 100.0 mg/kg/injection, schedule: Q01DX001 (ip), vehicle: saline
[3] = dose: 100.0 mg/kg/injection, schedule: Q04DX003 (ip), vehicle: saline
[4] = dose: 200.0 mg/kg/injection, schedule: Q01DX001 (ip), vehicle: saline
[5] = dose: 200.0 mg/kg/injection, schedule: Q04DX003 (ip), vehicle: saline
[6] = dose: 400.0 mg/kg/injection, schedule: Q01DX001 (ip), vehicle: saline
[7] = dose: 400.0 mg/kg/injection, schedule: Q04DX003 (ip), vehicle: saline
[8] = dose: 50.0 mg/kg/injection, schedule: Q04DX003 (ip), vehicle: saline
[9] = dose: 100.0 mg/kg/injection, schedule: Q01DX009 (ip), vehicle: saline
[10] = dose: 50.0 mg/kg/injection, schedule: Q01DX001 (ip), vehicle: saline
[11] = dose: 100.0 mg/kg/injection, schedule: Q01DX009 (ip), vehicle: Klucel (hydroxypropylcellulose) (HPC)
[12] = dose: 100.0 mg/kg/injection, schedule: Q04DX003 (ip), vehicle: Klucel (hydroxypropylcellulose) (HPC)
[13] = dose: 200.0 mg/kg/injection, schedule: Q01DX009 (ip), vehicle: Klucel (hydroxypropylcellulose) (HPC)
[14] = dose: 200.0 mg/kg/injection, schedule: Q04DX003 (ip), vehicle: Klucel (hydroxypropylcellulose) (HPC)
[15] = dose: 400.0 mg/kg/injection, schedule: Q01DX009 (ip), vehicle: Klucel (hydroxypropylcellulose) (HPC)
[16] = dose: 400.0 mg/kg/injection, schedule: Q04DX003 (ip), vehicle: Klucel (hydroxypropylcellulose) (HPC)
[17] = dose: 100.0 mg/kg/injection, schedule: Q04DX002 (ip), vehicle: saline with Tween-80
[18] = dose: 200.0 mg/kg/injection, schedule: Q04DX002 (ip), vehicle: saline with Tween-80
[19] = dose: 400.0 mg/kg/injection, schedule: Q04DX002 (ip), vehicle: saline with Tween-80

Compound: Cc1c2ccccc2c(CNCCSCCCl)c2ccc3ccccc3c12
- T/C [1]: 119 % of control
- T/C (dose: 150.0 mg/kg/injection, schedule: Q01DX009 (ip), vehicle: saline): 109 % of control
- T/C (dose: 167.0 mg/kg/injection, schedule: Q01DX009 (ip), vehicle: saline): 94 % of control

Compound: CC1(C)CC(=O)C2=C(C1)Nc1ccc(Cl)cc1NC2c1ccccc1 (stereo not drawn)
- T/C (dose: 25.0 mg/kg/injection, schedule: Q04DX002 (ip), vehicle: Klucel (hydroxypropylcellulose) (HPC)): 92 % of control
- T/C (dose: 50.0 mg/kg/injection, schedule: Q04DX002 (ip), vehicle: Klucel (hydroxypropylcellulose) (HPC)): 106 % of control
- T/C (dose: 100.0 mg/kg/injection, schedule: Q04DX002 (ip), vehicle: Klucel (hydroxypropylcellulose) (HPC)): 92 % of control
- T/C (dose: 200.0 mg/kg/injection, schedule: Q04DX002 (ip), vehicle: Klucel (hydroxypropylcellulose) (HPC)): 103 % of control and 113 % of control
- T/C (dose: 400.0 mg/kg/injection, schedule: Q04DX002 (ip), vehicle: Klucel (hydroxypropylcellulose) (HPC)): 106 % of control

Compound: C#CC(C)(C)N1CCCCC1
- T/C (dose: 25.0 mg/kg/injection, schedule: Q04DX003 (ip), vehicle: Klucel (hydroxypropylcellulose) (HPC)): 110 % of control
- T/C (dose: 50.0 mg/kg/injection, schedule: Q04DX003 (ip), vehicle: Klucel (hydroxypropylcellulose) (HPC)): 106 % of control

Compound: COc1ccc(OC(=O)N2C=Cc3ccccc3C2C#N)cc1 (stereo not drawn)
- T/C [2]: 93 % of control
- T/C [3]: 105 % of control
- T/C [4]: 97 % of control
- T/C [5]: 97 % of control
- T/C [6]: 91 % of control
- T/C [7]: 97 % of control

Compound: O=C1C=CC(CCCCCn2ccc(=O)[nH]c2=O)C(=O)N1 (stereo not drawn)
- T/C [3]: 105 % of control
- T/C [5]: 96 % of control
- T/C [7]: 97 % of control

Compound: Clc1ccccc1OCCNC1CC1
- T/C (dose: 6.25 mg/kg/injection, schedule: Q01DX009 (ip), vehicle: saline): 101 % of control
- T/C (dose: 12.5 mg/kg/injection, schedule: Q01DX009 (ip), vehicle: saline): 105 % of control
- T/C (dose: 25.0 mg/kg/injection, schedule: Q01DX009 (ip), vehicle: saline): 97 % of control
- T/C (dose: 25.0 mg/kg/injection, schedule: Q04DX003 (ip), vehicle: saline): 102 % of control
- T/C [1]: 103 % of control
- T/C [8]: 100 % of control
- T/C [9]: 105 % of control
- T/C [3]: 102 % of control

Compound: C(/C=C/c1ccccc1)=C\c1ccccc1
- T/C [10]: 104 % of control
- T/C [2]: 104 % of control
- T/C [4]: 104 % of control
- T/C [6]: 104 % of control

Compound: O=[N+]([O-])CC(O)C(O)C(O)C(O)CO (stereo not drawn)
- T/C [3]: 102 % of control
- T/C [5]: 102 % of control
- T/C [7]: 102 % of control

Compound: O=C(/C=C/C(=O)Oc1ccccc1)Oc1ccccc1
- T/C [11]: 88 % of control
- T/C [12]: 107 % of control
- T/C [13]: 91 % of control
- T/C [14]: 107 % of control
- T/C [15]: 98 % of control
- T/C [16]: 98 % of control

Compound: Cc1cc(Cl)cc(Cl)c1OCC(=O)Nc1cc(Cl)ccc1Cl
- T/C [17]: 90 % of control
- T/C [18]: 86 % of control
- T/C [19]: 86 % of control

Compound: CCOC(=O)C(C)(C)CN(C)CC(C)(C)C=O
- T/C (dose: 100.0 mg/kg/injection, schedule: Q04DX002 (ip), vehicle: saline): 97 % of control
- T/C (dose: 200.0 mg/kg/injection, schedule: Q04DX002 (ip), vehicle: saline): 108 % of control
- T/C (dose: 400.0 mg/kg/injection, schedule: Q04DX002 (ip), vehicle: saline): 101 % of control

Compound: CC1=C(C)Cc2c(-c3ccccc3)oc(-c3ccccc3)c2C1
- T/C (dose: 100.0 mg/kg/injection, schedule: Q01DX001 (ip), vehicle: saline with Tween-80): 94 % of control
- T/C (dose: 200.0 mg/kg/injection, schedule: Q01DX001 (ip), vehicle: saline with Tween-80): 90 % of control
- T/C (dose: 400.0 mg/kg/injection, schedule: Q01DX001 (ip), vehicle: saline with Tween-80): 90 % of control

Compound: Cc1ccccc1S(=O)(=O)c1cccs1
- T/C [2]: 98 % of control
- T/C (dose: 100.0 mg/kg/injection, schedule: Q04DX003 (ip), vehicle: acetone): 98 % of control
- T/C [4]: 95 % of control
- T/C (dose: 200.0 mg/kg/injection, schedule: Q04DX003 (ip), vehicle: acetone): 104 % of control
- T/C [6]: 93 % of control
- T/C (dose: 400.0 mg/kg/injection, schedule: Q04DX003 (ip), vehicle: acetone): 93 % of control

Compound: COc1ccc(OC)c(-n2cccc2)c1
- T/C [17]: 87 % of control
- T/C [18]: 103 % of control
- T/C [19]: 94 % of control

Compound: CCOc1cc(/C=N/NC(=S)Nc2ccccc2)ccc1O
- T/C [11]: 98 % of control
- T/C [13]: 105 % of control
- T/C [15]: 94 % of control

Compound: CCOC(=O)CCOc1ccccc1N(CCCl)CCCl
- T/C (dose: 1.2 mg/kg/injection, schedule: Q01DX Z (ip), vehicle: methylcellulose (MC)): 110 % of control and 121 % of control
- T/C (dose: 2.4 mg/kg/injection, schedule: Q01DX Z (ip), vehicle: methylcellulose (MC)): 110 % of control and 113 % of control
- T/C (dose: 3.13 mg/kg/injection, schedule: Q01DX009 (ip), vehicle: other): 115 % of control
- T/C (dose: 4.7 mg/kg/injection, schedule: Q01DX Z (ip), vehicle: methylcellulose (MC)): 108 % of control and 111 % of control
- T/C (dose: 6.2 mg/kg/injection, schedule: Q01DX001 (ip), vehicle: carboxymethylcellulose (CMC)): 109 % of control
- T/C (dose: 8.7 mg/kg/injection, schedule: Q01DX Z (ip), vehicle: methylcellulose (MC)): 178 % of control
- T/C (dose: 9.4 mg/kg/injection, schedule: Q01DX Z (ip), vehicle: methylcellulose (MC)): 100 % of control and 120 % of control
- T/C (dose: 12.5 mg/kg/injection, schedule: Q04DX003 (ip), vehicle: other): 106 % of control
- T/C (dose: 13.0 mg/kg/injection, schedule: Q01DX Z (ip), vehicle: methylcellulose (MC)): 161 % of control
- T/C (dose: 22.0 mg/kg/injection, schedule: Q01DX001 (ip), vehicle: carboxymethylcellulose (CMC)): 109 % of control
- T/C (dose: 25.0 mg/kg/injection, schedule: Q01DX001 (ip), vehicle: carboxymethylcellulose (CMC)): 124 % of control
- T/C (dose: 25.0 mg/kg/injection, schedule: Q01DX009 (ip), vehicle: saline sonified): 110 % of control
- T/C (dose: 25.0 mg/kg/injection, schedule: Q04DX003 (ip), vehicle: other): 106 % of control
- T/C (dose: 33.0 mg/kg/injection, schedule: Q01DX001 (ip), vehicle: carboxymethylcellulose (CMC)): 109 % of control
- T/C (dose: 44.0 mg/kg/injection, schedule: Q01DX Z (ip), vehicle: methylcellulose (MC)): 201 % of control
- T/C (dose: 50.0 mg/kg/injection, schedule: Q01DX009 (ip), vehicle: saline sonified): 114 % of control
- T/C (dose: 50.0 mg/kg/injection, schedule: Q01DX009 (ip), vehicle: saline with Tween-80): 162 % of control
- T/C (dose: 66.0 mg/kg/injection, schedule: Q01DX Z (ip), vehicle: methylcellulose (MC)): 159 % of control
- T/C (dose: 75.0 mg/kg/injection, schedule: Q01DX001 (ip), vehicle: carboxymethylcellulose (CMC)): 112 % of control
- T/C (dose: 75.0 mg/kg/injection, schedule: Q01DX Z (ip), vehicle: methylcellulose (MC)): 86 % of control
- T/C (dose: 100.0 mg/kg/injection, schedule: Q01DX Z (ip), vehicle: methylcellulose (MC)): 109 % of control
- T/C [12]: 90 % of control

Compound: CCOC(=O)c1cnc(C)nc1Nc1ccccc1C
- T/C [12]: 88 % of control
- T/C [14]: 98 % of control
- T/C [16]: 105 % of control

Compound: OCC1OC(n2ccc3c(SCc4ccccc4)ncnc32)C(O)C1O (stereo not drawn)
- T/C (dose: 25.0 mg/kg/injection, schedule: Q01DX001 (ip), vehicle: saline): 110 % of control
- T/C [10]: 107 % of control
- T/C [2]: 98 % of control
- T/C [4]: 116 % of control

Compound: O=C(N[C@@H](c1ccccc1)[C@H](N=Cc1ccccc1)c1ccccc1)c1ccccc1
- T/C [1]: 93 % of control
- T/C [8]: 95 % of control
- T/C [9]: 90 % of control
- T/C [3]: 86 % of control and 92 % of control
- T/C (dose: 200.0 mg/kg/injection, schedule: Q01DX009 (ip), vehicle: saline): 87 % of control
- T/C [5]: 94 % of control
- T/C (dose: 400.0 mg/kg/injection, schedule: Q01DX009 (ip), vehicle: saline): 95 % of control and 87 % of control
- T/C [7]: 86 % of control and 92 % of control
